Measurements published in patent US20230295133A1, “PROCESS FOR PREPARING A COMPOUND USEFUL TO TREAT MYCOSES” (PULMOCIDE LIMITED, priority 2014, published 2023).
≈ marks a conversion by molar mass, not a printed value.

Assays:
[1] = tested on: Chaectomium globosum ATCC44699; assay: Fungus panel screening, CLSI broth microdilution; format: cell-based
Experimental: Fungus panel screening was conducted by Eurofins Panlabs Inc. The MIC and MIC50 values of the test articles were determined following the guidelines of the Clinical and Laboratory Standards Institute, broth microdilution methods for yeast (CLSI M27-A2), (CLSI, 2002) and for filamentous fungi (CLSI M38-A), (CLSI, 2008).

[2] = tested on: Aspergillus fumigatus (NCPF2010) invasion; assay: Aspergillus fumigatus infection of human alveoli bilayers (transwells), GM in lower chamber; format: cell-based; settings: Posaconazole 0.01 µg/mL lower chamber
Experimental: In vitro models of human alveoli, consisting of a bilayer of human alveolar epithelial cells and endothelial cells, were prepared as previously described (Hope et al., 2007). This system allows administration of a test compound to the upper (“air” space) and/or lower (“systemic” space) compartments. This flexibility has been exploited to explore the effects of combination treatments by dosing compound Example 1 to the upper chamber and posaconazole or other anti-fungal agents to the lower chamber. Primary human pulmonary artery endothelial cells (HPAEC) were harvested and diluted to 10^6 cells/mL in EGM-2 media (Lonza, Basel, Switzerland). Transwells were inverted and the cell suspension (100 µL/well) was applied to the base of each transwell. The inverted transwells were incubated at RT within a flow hood for 2 hr after which they were turned upright. EGM-2 media was added to the lower (700 µL/well) and upper (100 µL/well) compartments and the transwells were incubated for 48 hr (37° C., 5% CO2). The EGM-2 media in the lower compartment was then replaced with fresh EGM-2 media. A549 cells were harvested and diluted to 5×10^5 cells/mL in 10% EBM, then added to the upper compartment (100 µL/well) of all transwells and the plates incubated for 72 hr (37° C., 5% CO2). Conidia of aspergillus fumigatus (the itraconazole sensitive strain NCPF2010 and the itraconazole resistant strain TR34-L98H) were cultured separately in Sabouraud dextrose agar for 3 days. A stock conidia suspension of either strain was prepared from a Sabouraud dextrose agar culture by washing with PBS-tween (10 mL; PBS containing 0.05% Tween-20, 100 U/mL Penicillin and 100 U/mL Streptomycin). The conidia count was assessed using a Neubauer haemocytometer and adjusted to 10^6 conidia/mL with PBS. A working stock of conidia was prepared in EBM (conc of 10^5 conidia/mL) immediately prior to use.
Test and reference compounds (or neat DMSO as the vehicle) were added to the appropriate wells of 24-well plates (3 µL/well containing 600 µL of 2% FBS EBM) for lower compartment treatment and to 96-well plates (1 µL/well containing 200 µL of 2% FBS EBM) for the treatment of the upper compartment, to provide a final DMSO concentration of 0.5%. The media in the upper compartment was aspirated and that containing the appropriate test and reference compounds, or vehicle, were added (100 µL/well). Transwells were then transferred into the 24-well plate containing the test and reference compounds or DMSO vehicle. After incubation for 1 hr (35° C., 5% CO2) the conidia suspension (10 µL/well) was added to the upper compartment of each transwell. Plates were then incubated for 24 hr (35° C., 5% CO2). Supernatants from each compartment (5 µL/compartment) were collected and stored (-20° C.). Media was replaced daily after collection of the supernatants and all wells were treated with test and reference compounds or with DMSO, as described above, for 3 days. Samples continued to be collected until fungal growth was visible by eye in all transwells. The levels of GM in the supernatant in lower compartment were then measured by ELISA (BioRad, CA, USA) as an index of aspergillus fumigatus invasion.

[3] = tested on: aspergillus fumigatus (ATCC 13073 [strain: NIH 5233]); assay: In vivo anti-fungal activity, prophylactic and therapeutic treatment of infected immunocompromised neutropenic mice; set-up: species or system A/J mice; settings: for Cell numbers in BALF, Macrophage / Cell numbers in BALF, Neutrophil / TNFα conc in serum: mean ± SEM
[4] = tested on: aspergillus fumigatus (ATCC 13073 [strain: NIH 5233]); assay: Survival of severely immunosuppressed neutropenic infected mice, monotherapy and combination; format: in vivo, A/J mice; settings: Example 1 0.4 mg/mL (in); Posaconazole 1 mg/kg (po); once daily days 1-6
Experimental: On day 0, animals were infected intranasally with 35 µL of the spore suspension (1.67 × 10^8 spores/mL in physiological saline) of aspergillus fumigatus (ATCC 13073 [strain: NIH 5233]). Compound Example (I), prepared as a suspension in isotonic saline (0.4 mg/mL), was dosed once daily by an intra-nasal injection (35 µL/mouse) on days 1-6 after infection. Posaconazole (1 mg/kg) was given orally once daily on days 1-6 after infection. Body weight and survival were monitored daily up to day 7.

[5] = treatment day 1, Example 1 0.1 µg/mL upper chamber
[6] = treatment day 6, Example 1 0.1 µg/mL upper chamber
[7] = prophylactic treatment (days 0, 1, 2 and 3), 0.4 mg/mL
[8] = prophylactic treatment, 0.08 mg/mL
[9] = prophylactic treatment, 0.4 mg/mL
[10] = prophylactic treatment, 2 mg/mL
[11] = therapeutic treatment (days 1, 2 and 3), 0.4 mg/mL
[12] = therapeutic treatment, 0.4 mg/mL
[13] = therapeutic treatment, 10 mg/mL

SMILES: Cc1cc(N2CCN(c3ccc(C(=O)Nc4ccc(F)cc4)cc3)CC2)ccc1OC[C@@H]1CO[C@@](Cn2cncn2)(c2ccc(F)cc2F)C1 [Example 1, 4-(4-(4-(((3R,5R)-5-((1H-1,2,4-Triazol-1-yl)Methyl)-5-(2,4-Difluorophenyl)Tetra Hydrofuran-3-yl)Methoxy)-3-Methylphenyl)Piperazin-1-yl)-N-(4-Fluorophenyl) Benzamide]
- MIC50 ([1]; 50% inhibition by visual inspection (CLSI)): 0.063 µg/mL (≈ 0.0923 µM)
- MIC ([1]; 100% inhibition by visual inspection (CLSI), read-out: MIC100): > 8 µg/mL
- GM Levels in the Lower Chamber, OD value ([2]; treatment day 0, Example 1 0.1 µg/mL upper chamber): 0 OD
- GM Levels in the Lower Chamber, % inhibition vs. control [2, 5]: 86%
- GM Levels in the Lower Chamber, OD value [2, 5]: 0.091 OD
- GM Levels in the Lower Chamber, % inhibition vs. control ([2]; treatment day 2, Example 1 0.1 µg/mL upper chamber): 3.4%
- GM Levels in the Lower Chamber, % inhibition vs. control ([2]; treatment day 3, Example 1 0.1 µg/mL upper chamber): 3.7%
- GM Levels in the Lower Chamber, % inhibition vs. control ([2]; treatment day 4, Example 1 0.1 µg/mL upper chamber): 4.5%
- GM Levels in the Lower Chamber, % inhibition vs. control ([2]; treatment day 5, Example 1 0.1 µg/mL upper chamber): 0.3%
- GM Levels in the Lower Chamber, % inhibition vs. control [2, 6]: -0.3%
- GM Levels in the Lower Chamber, OD value [2, 6]: 1.18 OD
- GM Levels in the Lower Chamber, % inhibition vs. control ([2]; treatment day 7, Example 1 0.1 µg/mL upper chamber): 0.9%
- GM Levels in the Lower Chamber, % inhibition vs. control ([2]; treatment day 8, Example 1 0.1 µg/mL upper chamber): 2.8%
- % Inhibition versus Infected Controls, GM in BALF [3, 7]: 92%
- % Inhibition versus Infected Controls, GM in serum [3, 7]: 95%
- % Inhibition versus Infected Controls, Lung Fungal Load [3, 7]: 81%
- Macrophage in BALF, % inhibition [3, 8]: 38%
- Neutrophil in BALF, % inhibition [3, 8]: 24%
- Cell numbers in BALF, Macrophage [3, 8]: 0.40 ± 0.15 ×10^5/mL
- Cell numbers in BALF, Neutrophil [3, 8]: 0.37 ± 0.04 ×10^5/mL
- Macrophage in BALF, % inhibition [3, 9]: 51%
- Neutrophil in BALF, % inhibition [3, 9]: 47%
- Cell numbers in BALF, Macrophage [3, 9]: 0.32 ± 0.07 ×10^5/mL
- Cell numbers in BALF, Neutrophil [3, 9]: 0.26 ± 0.12 ×10^5/mL
- TNFα conc in serum [3, 9]: 7.3 ± 3.5 pg/mL
- Macrophage in BALF, % inhibition [3, 10]: 60%
- Neutrophil in BALF, % inhibition [3, 10]: 55%
- Cell numbers in BALF, Macrophage [3, 10]: 0.26 ± 0.05 ×10^5/mL
- Cell numbers in BALF, Neutrophil [3, 10]: 0.22 ± 0.04 ×10^5/mL
- TNFα conc in serum [3, 10]: 4.7 ± 0.4 pg/mL
- % Inhibition versus Infected Control, GM in BALF [3, 11]: 94%
- % Inhibition versus Infected Control, GM in serum [3, 11]: 91%
- % Inhibition versus Infected Control, Lung Fungal Load [3, 11]: 97%
- Macrophage in BALF, % inhibition [3, 12]: 34%
- Neutrophil in BALF, % inhibition [3, 12]: 22%
- Cell numbers in BALF, Macrophage [3, 12]: 0.43 ± 0.05 ×10^5/mL
- Cell numbers in BALF, Neutrophil [3, 12]: 0.38 ± 0.04 ×10^5/mL
- TNFα conc in serum [3, 12]: 6.2 ± 0.5 pg/mL
- Macrophage in BALF, % inhibition ([3]; therapeutic treatment, 2 mg/mL): 38%
- Neutrophil in BALF, % inhibition ([3]; therapeutic treatment, 2 mg/mL): 31%
- Cell numbers in BALF, Macrophage ([3]; therapeutic treatment, 2 mg/mL): 0.40 ± 0.11 ×10^5/mL
- Cell numbers in BALF, Neutrophil ([3]; therapeutic treatment, 2 mg/mL): 0.34 ± 0.05 ×10^5/mL
- TNFα conc in serum ([3]; therapeutic treatment, 2 mg/mL): 5.5 ± 0.7 pg/mL
- Macrophage in BALF, % inhibition [3, 13]: 51%
- Neutrophil in BALF, % inhibition [3, 13]: 45%
- Cell numbers in BALF, Macrophage [3, 13]: 0.32 ± 0.07 ×10^5/mL
- Cell numbers in BALF, Neutrophil [3, 13]: 0.27 ± 0.08 ×10^5/mL
- TNFα conc in serum [3, 13]: 4.9 ± 0.6 pg/mL
- Median survival [4]: 6 days
- No. of survivors on day 7 [4]: 0/6
- Survivors on day 7 (%) [4]: 0%
